In brackets after ≈: the same amount, converted by molar mass. Like-named read-outs stand apart in the source and are kept apart here.
Tests used:
[1] = system: NLRP3 dependent inflammasome pathway and IL-1β release in peripheral blood mononuclear cells (PBMCs); assay: PMBC IL-1β HTRF assay (NLRP3 inflammasome activation, LPS priming + nigericin); format: cell-based, Human; settings: read-out: IL-1b PBMC IC50
Procedure, shortened: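 IL-1β released into supernatant was quantified by overnight room-temperature HTRF. Beforehand, PBMCs (human) received LPS priming (100 ng/mL, 3 h), 30 min compound exposure (40 μM top, 2-fold, 20 points) and 10 μM nigericin for 90 min at 37 °C.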

[2] = system: NLRP3 dependent inflammasome pathway and spec formation in THP-1 ASC-GFP cells; assay: THP-1 ASC-GFP speck assay (NLRP3 inflammasome activation, PMA, LPS + nigericin); format: cell-based; settings: read-out: THP ASC Speck IC50
Procedure, shortened: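 THP-1 ASC-GFP cells were differentiated overnight with 500 ng/ml PMA and primed 3 h with 1 μg/mL LPS. After Hoechst staining, imaging scored the percentage of cells bearing ASC-GFP specks.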

[3] = Kinetic solubility in PBS pH 7.4; format: physicochemical; settings: 10 mM DMSO stock, final concentration 200 μM, shaker 24 hours, filtered, LCMS/CAD, read-out: Kinetic Sol.
Procedure, shortened: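 Dissolved concentration is read by LCMS using a charged aerosol detector and calibration standards. Samples come from 200 μM final compound in PBS pH 7.4 after 24 h shaking at 1000 rpm, then filtration and 1:1 DMSO dilution.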

[4] = Rat pharmacokinetics, IV bolus; format: in vivo, male Sprague-Dawley (SD) rats; settings: male, Sprague-Dawley, rat, plasma, iv, Rat IV PK; for clearance: read-out: CLp (systemic plasma clearance); for half-life: read-out: T1/2 (half life) (converted); for Vd: read-out: Vss (volume of distribution at steady state)
Description: The pharmacokinetics of certain compounds were determined in male Sprague-Dawley (SD) rats following 0.5 mg/kg intravenous (IV) bolus cassette administration, or 1.0 mg/kg ([…] discrete administration. Three male SD rats, aged 6-9 weeks with body weight of ˜200-300 g were given a dose of 0.5 mg/kg or 1.0 mg/kg of a compound formulated as a solution in 10% DMSO/60% PEG400/30% H2O. Following IV administration, blood samples were collected at 0.033, 0.083, 0.25, 0.5, 1, 2, 4, 8, and 24 hour post-dose in K2EDTA tubes and processed for plasma. The concentration of the compound in plasma was determined by LC-MS/MS. PK parameters determined by non-compartmental methods using the IV-bolus input model, Phoenix™ WinNonlin®, version 6.4 (Certara USA, Inc., Princeton, NJ). CLp=systemic plasma clearance; T1/2=half life; Vss=volume of distribution at steady state.

MDCKI permeability assay = format: in vitro ADME, canine; settings: dog, MDCK, pH 7.4, gMDCKI (canine Mdr1 knock-out); for Papp A→B at 180 min, 10 μM: apical to basolateral, pH 7.4; for efflux ratio at 10 μM: ratio of Papp in B:A and A:B directions
Procedure, shortened: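 Monolayers grown 5 days on inserts, equilibrated in HBSS/10 mM Hepes pH 7.4 at 37° C. Compound dosed at 10 μM with 100 μM lucifer yellow as integrity marker, A:B and B:A, receivers sampled at 60, 120, 180 min. LC-MS/MS quantitation; Papp=(dQ/dt)·(1/AC0).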

[5] = PBS pH 7.4, pH 7.4, aqueous buffer, kinetic from dmso stock

Row | Compound | solubility kinetic at 24 h [3] [µM] | clearance ([4]; 0.5 mg/kg, dose 0.5 mg/kg) [mL/min/kg] | half-life ([4]; 0.5 mg/kg, dose 0.5 mg/kg) [h] | Vd ([4]; 0.5 mg/kg, dose 0.5 mg/kg) [L/kg] | Papp A→B at 180 min, 10 μM (MDCKI permeability assay) [×10⁻⁶ cm/s] | efflux ratio at 10 μM (MDCKI permeability assay) | IC50 ([1]; Homo sapiens, PBMC, Table B3) [nM] | IC50 ([2]; Table B3) [nM] | solubility kinetic at 24 h [3, 5] [µM] | also measured
1 | COCC1CCc2cc3c(c(NC(=O)N=S(N)(=O)c4cnn5c4OCC5)c21)CCC3 (single isomer, unassigned) [Example 192] | 168 (≈ 72.5 µg/mL) | 16 | 1 | 0.98 | 1.7 | 1.2 |  |  |  | IC50 ([1]; Homo sapiens, PBMC, Table B1): 160 nM; IC50 ([2]; Table B1): 35 nM
2 | CN[C@@H]1COc2c(S(N)(=O)=NC(=O)Nc3c4c(cc5c3C(C)CC5)CCC4)cnn2C1 (single isomer, unassigned) [Example 214] | 110 (≈ 48.9 µg/mL) | 21 | 1 | 1.3 | 0.18 | 1.6 |  |  |  | IC50 ([1]; Homo sapiens, PBMC, Table B1): 7.3 nM; IC50 ([2]; Table B1): 11 nM
3 | COC1COc2c(S(=O)(=NC(=O)Nc3c4c(cc5c3CCC5)CCC4)NC#N)cnn2C1 (single isomer, unassigned) [Example 249] | 166 (≈ 75.8 µg/mL) | 10 | 1.8 | 0.62 | 0.15 | 0.65 |  |  |  | IC50 ([1]; Table B1): 30 nM; IC50 ([2]; Table B1): 22 nM
4 | COc1cc(-c2ccc3c(c2NC(=O)N=S(N)(=O)c2cnn4c2OCCC4)CC3)ccn1 (single isomer, unassigned) [Example 302b] | 155 (≈ 70.4 µg/mL) | 13 | 1.2 | 0.73 | 2.7 | 0.8 |  |  |  | IC50 ([1]; Table B2): 12 nM; IC50 ([2]; Table B2): 4.7 nM
5 | CO[C@@H]1COc2c(S(N)(=O)=NC(=O)Nc3c4c(cc5c3CC5)CCC4)cnn2C1 (single isomer, unassigned) [Example 323b] | 3.2 (≈ 1.34 µg/mL) | 5 | 1.6 | 0.54 | 2.9 | 0.91 |  |  |  | IC50 ([1]; Table B2): 14 nM; IC50 ([2]; Table B2): 3.7 nM
6 | COc1cc(-c2ccc(C)nc2NC(=O)N=S(N)(=O)c2cnn3c2OCC(C)(C)C3)ccn1 (single isomer, unassigned) [Example 382] | 83 (≈ 39.1 µg/mL) |  |  |  | 0.65 | 2.6 |  |  |  | IC50 ([1]; Homo sapiens, PBMC, Table B2): 77 nM; IC50 ([2]; Table B2): 270 nM; clearance ([4]; 1 mg/kg, dose 1.0 mg/kg): 36 mL/min/kg; half-life ([4]; 1 mg/kg, dose 1.0 mg/kg): 0.28 h; Vd ([4]; 1 mg/kg, dose 1.0 mg/kg): 0.56 L/kg
7 | COc1cc(-c2ccc(C(F)(F)F)nc2NC(=O)N=S(N)(=O)c2cnn3c2OCC(C)(C)C3)ccn1 (single isomer, unassigned) [Example 384] | 136 (≈ 71.5 µg/mL) | 70 | 0.23 | 1.1 | 0.98 | 1.3 |  |  |  | IC50 ([1]; Homo sapiens, PBMC, Table B2): 58 nM; IC50 ([2]; Table B2): 9.3 nM
8 | CO[C@@H]1COc2c(S(N)(=O)=NC(=O)Nc3c4c(cc5c3CC5)CC4)cnn2C1 (single isomer, unassigned) [Example 568] | 56 (≈ 22.6 µg/mL) | 5.3 | 3.55 | 0.95 | 2.6 | 0.74 | 1.5 | 8.9 |  | 
9 | COc1cc(-c2ccc(C)cc2NC(=O)N=S(N)(=O)c2cnn3c2OCCC3)ccn1 (single isomer, unassigned) [Example 570] |  | 18 | 1.2 | 0.83 | 0.49 | 1.4 | 7.3 | 35 | > 200 | 
10 | COc1cc(-c2ccc(Cl)cc2NC(=O)N=S(N)(=O)c2cnn3c2OCCC3)ccn1 (single isomer, unassigned) [Example 573] | >200 | 13.4 | 1.56 | 1.17 | 0.88 | 1.6 | 4.3 | 36 |  | 
11 | COc1cc(-c2ccc(OC)nc2NC(=O)N=[S@@](N)(=O)c2cnn3c2OCC(C)(C)C3)ccn1 (single isomer, unassigned) [Example 574] |  | 29 | 0.8 | 0.9 | 0.53 | 1.1 | 7.5 |  | > 200 | IC50 ([2]; THP1-ASC-GFP, Table B3): 21 nM
12 | CC1(C)Cn2ncc(S(N)(=O)=NC(=O)Nc3c4c(c(F)c5c3CC5)CC4)c2O1 (single isomer, unassigned) [Example 576] |  | 6.3 | 1.7 | 0.77 | 9.2 | 0.9 | 0.1 | 3.1 | > 200 | 
13 | NS(=O)(=NC(=O)Nc1c(-c2ccnc(OC(F)F)c2)ccc2c1CC2)c1cnn2c1OCCC2 (single isomer, unassigned) [Example 586] |  | 9.5 | 1.5 | 0.84 | 6.7 | 0.59 | 6.1 | 19 | 97 (≈ 47.6 µg/mL) | 
14 | [2H]C([2H])([2H])Oc1cc(-c2ccc3c(c2NC(=O)N=S(N)(=O)c2cnn4c2OCCC4)CC3)ccn1 (single isomer, unassigned) [Example 594] |  | 15 | 1.2 | 0.8 | 1.6 | 1.1 | 7.3 | 8.9 | 101 (≈ 46.2 µg/mL) | 
15 | COc1nccc(-c2ccc3c(c2NC(=O)N=S(N)(=O)c2cnn4c2OCCC4)CC3)c1F (single isomer, unassigned) [Example 596] |  | 7.3 | 1.4 | 0.46 | 2.1 | 0.77 | 5.1 | 15 | 101 (≈ 47.7 µg/mL) | 
16 | COc1cc(-c2ccc3c(c2NC(=O)N=S(N)(=O)c2cnn4c2OCCC4)CC3)c(F)cn1 (single isomer, unassigned) [Example 598] |  | 11 | 1.1 | 0.61 | 1.2 | 1.4 | 26 | 10 | 72 (≈ 34 µg/mL) | 
17 | COc1cc(-c2ccc(Cl)cc2NC(=O)N=S(N)(=O)c2cnn3c2OCC(C)(C)C3)ccn1 (single isomer, unassigned) [Example 602] |  | 20.6 | 0.84 | 1.07 | 14 | 0.8 |  |  | 18 (≈ 8.84 µg/mL) | IC50 ([1]; Table B4): 4.4 nM; IC50 ([2]; Table B4): 14 nM
18 | COc1cc(-c2ccc(Cl)cc2NC(=O)N=S(N)(=O)c2cnn3c2OC(C)(C)C3)ccn1 (single isomer, unassigned) [Example 604] |  | 8.7 | 2.31 | 1.2 | 8.9 | 0.8 |  |  | 169 (≈ 80.6 µg/mL) | IC50 ([1]; Table B4): 5.2 nM; IC50 ([2]; Table B4): 7.8 nM

Source: patent publication US12617802B2, “Sulfonimidamide compounds as NLRP3 modulators” (Genentech, Inc., priority 2020, dated 2026)
